# Reference: patent publication US8795977B2, “Method for screening a potential modulator compound of a taste receptor” (Conopco, Inc., priority 2009, dated 2014)
# Target: T1, T1R1/T1R3 umami receptor (Homo sapiens, UniProt Q7RTX0+Q7RTX1, C757R)
# T1 construct: expressed in transfected cells; host or cells: HEK293 cells, transiently transfected (Lipofectamine 2000)
# T1 sequence (Q7RTX1 21-841): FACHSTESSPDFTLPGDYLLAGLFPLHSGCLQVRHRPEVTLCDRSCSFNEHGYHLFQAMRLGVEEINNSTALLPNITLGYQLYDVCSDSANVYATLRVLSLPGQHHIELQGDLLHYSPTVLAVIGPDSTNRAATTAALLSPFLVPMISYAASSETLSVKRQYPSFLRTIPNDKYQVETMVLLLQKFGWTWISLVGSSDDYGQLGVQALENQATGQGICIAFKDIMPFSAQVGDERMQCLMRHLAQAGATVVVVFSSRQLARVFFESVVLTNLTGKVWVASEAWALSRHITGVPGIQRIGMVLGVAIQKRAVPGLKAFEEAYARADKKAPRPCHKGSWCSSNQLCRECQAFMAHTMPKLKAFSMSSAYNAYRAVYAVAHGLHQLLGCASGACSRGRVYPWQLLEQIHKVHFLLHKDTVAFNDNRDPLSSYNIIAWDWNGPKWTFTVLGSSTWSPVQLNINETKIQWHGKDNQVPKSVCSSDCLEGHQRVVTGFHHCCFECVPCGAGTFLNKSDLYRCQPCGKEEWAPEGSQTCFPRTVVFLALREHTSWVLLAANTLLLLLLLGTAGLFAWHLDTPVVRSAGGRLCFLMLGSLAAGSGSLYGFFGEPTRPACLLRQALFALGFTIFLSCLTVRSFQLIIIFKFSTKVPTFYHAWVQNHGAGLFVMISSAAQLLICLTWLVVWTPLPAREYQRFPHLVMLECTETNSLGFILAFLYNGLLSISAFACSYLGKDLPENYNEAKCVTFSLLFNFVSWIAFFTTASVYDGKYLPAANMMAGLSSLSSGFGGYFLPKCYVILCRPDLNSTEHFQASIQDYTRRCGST
# T1 sequence (Q7RTX0 with tags, fused parts or gaps C757R): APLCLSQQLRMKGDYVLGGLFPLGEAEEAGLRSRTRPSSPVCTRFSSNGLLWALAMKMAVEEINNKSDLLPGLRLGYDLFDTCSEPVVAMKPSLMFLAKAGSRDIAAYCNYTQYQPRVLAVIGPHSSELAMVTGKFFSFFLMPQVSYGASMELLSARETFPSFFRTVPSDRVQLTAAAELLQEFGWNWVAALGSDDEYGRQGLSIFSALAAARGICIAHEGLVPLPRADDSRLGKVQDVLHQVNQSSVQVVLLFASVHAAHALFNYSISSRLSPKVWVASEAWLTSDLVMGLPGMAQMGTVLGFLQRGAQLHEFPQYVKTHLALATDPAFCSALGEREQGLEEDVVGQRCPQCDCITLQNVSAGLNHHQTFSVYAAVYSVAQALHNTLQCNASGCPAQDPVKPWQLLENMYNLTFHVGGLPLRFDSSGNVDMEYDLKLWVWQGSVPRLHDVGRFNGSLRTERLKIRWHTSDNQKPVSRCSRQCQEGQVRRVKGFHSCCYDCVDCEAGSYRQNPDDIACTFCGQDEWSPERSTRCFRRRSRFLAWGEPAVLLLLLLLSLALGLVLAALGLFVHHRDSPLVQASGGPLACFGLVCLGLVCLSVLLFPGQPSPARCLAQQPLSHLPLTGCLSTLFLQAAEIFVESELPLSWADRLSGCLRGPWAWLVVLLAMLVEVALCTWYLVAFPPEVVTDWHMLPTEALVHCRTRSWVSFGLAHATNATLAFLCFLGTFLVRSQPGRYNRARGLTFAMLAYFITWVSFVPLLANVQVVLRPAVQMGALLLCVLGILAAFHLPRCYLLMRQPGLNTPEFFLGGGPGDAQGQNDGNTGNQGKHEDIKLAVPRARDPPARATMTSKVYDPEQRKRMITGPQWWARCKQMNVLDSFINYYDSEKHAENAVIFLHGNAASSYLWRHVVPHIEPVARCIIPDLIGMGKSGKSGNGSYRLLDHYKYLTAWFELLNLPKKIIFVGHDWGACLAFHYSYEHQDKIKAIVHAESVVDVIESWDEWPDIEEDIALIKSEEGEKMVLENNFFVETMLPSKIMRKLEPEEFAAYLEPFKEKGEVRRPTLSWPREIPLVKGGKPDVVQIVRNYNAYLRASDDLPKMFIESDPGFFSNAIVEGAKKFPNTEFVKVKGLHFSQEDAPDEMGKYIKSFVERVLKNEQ
# Experiment: BRET assay (T1R1/T1R3-Rluc and GFP-2-β-arrestin-2 in HEK293 cells)
# Assay type: cell-based
# Design: key: +: A BRET signal above the values achieved for buffer alone was defined as umami receptor-specific
# Details: MSG 10 mM
# Description: FIG. 2 Activation of the T1R1/T1R3 umami receptor expressed in HEK293-Gα15 cells as measured by BRET assays as described in Example 2. Test solutions (or buffer) as indicated and substrate were added to the cells. The BRET signals were determined as the ratio between readings taken at the acceptor wavelength (515 nm) divided by the signals determined for the donor (400 nm). To correct for background signal due to overlap of donor emission at the acceptor wavelength, the BRET ratio was determined in parallel for cells expressing the donor alone (T1R1/T1R3-Rluc). This BRET background value was subtracted from the BRET value obtained for the cells expressing both BRET partners (BRET=BRET ratio−background ratio). A BRET signal above the values achieved for buffer alone was defined as umami receptor-specific (see also table 2B).
# The extracts or crude mixtures described below are examples for natural samples unsuitable for testing with a calcium-based receptor assay due to their high non-specific background signal. They are from different origin and are selected to illustrate a wide range of potential test samples. […] Calcium-Based Receptor Assay: Activation of the T1R1/T1R3 umami receptor expressed in HEK293-Gα15 cells has been measured by monitoring the release of intracellular calcium. […]
structure (smiles),measurement,value
"N[C@@H](CCC(=O)O)C(=O)[O-].[Na+] [MSG, Monosodium glutamate]","T1R1/T1R3 receptor-specific signal, BRET assay",+
